Like-named read-outs stand apart in the source and are kept apart here.
Experiments:
[1] = tested on: lesions of the mucous membrane of the stomach; assay: Ethanol test (mucosa-protective activity); format: in vivo; settings: Rattus norvegicus; male rats, oral 30 min before absolute ethanol; dosage reducing number of lesions by 50%; read-out: Ethanol Test ID 50
Description: The experimental procedure described hereinafter was used to determine the mucosa-protective property:
The oral administration of absolute ethanol to male rats in a dosage of 1 ml per rat leads within 1 hour to bloody lesions of the mucous membrane of the stomach. Various dosages of the substances to be tested (suspended in 0.125% carboxymethycellulose) or of the vehicle alone (control) are administered to the rats orally (1 ml per rat) 30 minutes prior to the treatment with ethanol. One hour after the administration of the ethanol the animals are killed, their stomachs are investigated for the presence of lesions and the number and the total dimension of such lesions are determined. The ID50 is that dosage of a test substance which reduces by 50% the number of lesions in comparison to the control group. […]

gastric acid secretion = assay: Gastric acid secretion-inhibiting activity (pylorus ligation, Shay et al.); format: in vivo; settings: Rattus norvegicus; male pylorus-ligated rats, intraduodenal, 5 h; 50% decrease of the secretion; read-out: Gastric acid secretion-inhibition, ID 50
Description: The test procedure described hereinafter was used to determine the gastric acid secretion-inhibiting activity:
The pylorus of male rats is ligated under slight ether narcosis in accordance with Shay et al., Gastroenterology 5. 43 (1945). The substances to be tested, suspended in 0.5% carboxymethylcellulose, are administered intraduodenally. Control animals are treated only with the vehicle. Five hours after the ligation the animals are killed, the volume and acidity of their gastric juice are determined and the values obtained are compared with those of control animals. The ID50 is that dosage of a test substance which brings about a 50% decrease of the secretion in comparison to the control animals. In the following Table there are given for a series of representative compounds of formula I and for two compounds of formula II the results of the testing with respect to their mucosa-protective activity ("ethanol test") and to their gastric acid secretion-inhibiting activity. Moreover, this Table contains data concerning the acute toxicity (LD50 in the case of single oral administration to mice).

[2] = Acute toxicity, single oral administration; settings: mouse, in vivo, read-out: Toxicity LD 50
[3] = single oral administration to mice

Structure (SMILES) | ED50 [1] [mg/kg] | ED50 (gastric acid secretion) [mg/kg] | LD50 [2, 3] [mg/kg] | LD50 ([2]; po) [mg/kg]
COC(=O)C#CC(=O)c1cc(OC)c(OC)c(OC)c1 [N, methyl 3-(3,4,5-trimethoxybenzoyl)propiolate] | 4.2 | > 100 | > 5000 | –
COc1ccc(C(=O)C#CC(=O)O)cc1 [C, 3-(4-methoxybenzoyl)propiolic acid] | 1.4 | – | 625 to 1250 | –
COC(=O)C#CC(O)c1ccc2c(c1)OCO2 (stereo not shown) [Aa, methyl 4-hydroxy-4-[3,4-(methylenedioxy)phenyl]-2-butynoate] | 1.4 | – | 312 to 625 | –
COC(=O)C#CC(=O)c1cc(OC)ccc1OC [H, methyl 3-(2,5-dimethoxybenzoyl)propiolate] | 2.2 | – | > 5000 | –
O=C(O)C#CC(=O)c1ccc2c(c1)OCO2 [A, 3-[3,4-(Methylenedioxy)benzoyl]propiolic acid] | 1.2 | 42 | 625 to 1250 | –
COC(=O)C#CC(=O)c1ccc(F)cc1 [M, methyl 3-(4-fluorobenzoyl)propiolate] | 4.2 | – | 1250 to 2500 | –
COC(=O)C#CC(=O)c1ccc(O)cc1 [E, methyl 3-(4-hydroxybenzoyl)propiolate] | 1.2 | – | 312 to 625 | –
COc1cc(C(=O)C#CC(C)O)cc(OC)c1OC (stereo not shown) [V, 4-hydroxy-1-(3,4,5-trimethoxyphenyl)-2-pentyn-1-one] | 1.2 | 3.1 | 156 to 312 | –
COc1ccc(C(=O)C#CC(=O)O)c(OC)c1OC [K, 3-(2,3,4-trimethoxybenzoyl)-propiolic acid] | 3.4 | – | 500 to 1000 | –
O=C(C#CCO)c1ccc(Cl)cc1 [S, 1-(4-chlorophenyl)-4-hydroxy-2-butyn-1-one] | 1.2 | – | 80 to 156 | –
Cc1ccc(C(=O)C#CCO)cc1 [Q, 4-hydroxy-1-(4-methylphenyl)-2-butyn-1-one] | 1.5 | – | 80 to 156 | –
COCCOCCOC(=O)C#CC(=O)c1ccc2c(c1)OCO2 [J, 2-(2-methoxyethoxy)ethyl 3-[3,4-(methylenedioxy)-benzoyl]propiolate] | 2.3 | > 100 | 1250 to 2500 | –
CSc1ccc(C(=O)C#CCO)cc1 [Y, 4 hydroxy-1-[4-(methylthio)phenyl]-2-butyn-1-one] | 1 | 2.7 | 156 to 312 | –
COCCOCCOC(=O)C#CC(=O)c1ccc(OC)cc1 [G, 2-(2-methoxyethoxy)ethyl 3-(4-methoxybenzoyl)propiolate] | 2.1 | – | 1000 to 2000 | –
O=C(C#CCO)c1ccc(F)cc1 [P, 1-(4-fluorophenyl)-4-hydroxy-2-butyn-1-one] | 0.9 | – | 80 to 156 | –
CCOC(C)OCC#CC(=O)c1ccc(OC)c(OC)c1OC (stereo not shown) [W, 4-(1-ethoxyethoxy)-1-(2,3,4-trimethoxyphenyl)-2-butyn-1-one] | 0.8 | 9 | 312 to 625 | –
COc1cc(C(=O)C#CC(=O)O)cc(OC)c1OC [L, 3-(3,4,5-trimethoxybenzoyl)-propiolic acid] | 4.1 | 56 | 1000 to 2000 | –
COc1ccc(OC)c(C(=O)C#CC(=O)O)c1 [I, 3-(2,5-dimethoxybenzoyl)propiolic acid] | 1.9 | – | 625 to 1250 | –
COCCOCCOC(=O)C#CC(O)c1cc(OC)c(OC)c(OC)c1 (stereo not shown) [Bb, 2-(2-methoxyethoxy)ethyl 4-hydroxy-4-(3,4,5-trimethoxyphenyl)-2-butynoate] | 4 | – | 625 to 1250 | –
COc1ccc(C(=O)C#CCO)c(OC)c1OC [X, 4-hydroxy-1-(2,3,4-trimethoxyphenyl)-2-butyn-1-one] | 0.8 | 4 | 156 to 312 | –
COc1cc(C(=O)C#CC(=O)N(C)C)cc(OC)c1OC [O, N,N-dimethyl-3-(3,4,5-trimethoxybenzoyl)propiolamide] | 2.8 | 28 | 312 to 625 | –
COc1ccc(C(=O)C#CCO)cc1 [T, 4-hydroxy-1-(4-methoxyphenyl)-2-butyn-1-one] | 1.2 | – | 40 to 80 | –
CCOC(C)OCC#CC(=O)c1ccc(F)cc1 (stereo not shown) [R, 4-(1-ethoxyethoxy)-1-(4-fluorophenyl)-2-butyn-1-one] | 1.4 | – | 80 to 156 | –
O=C(C#CCO)c1ccc2c(c1)OCO2 [U] | 1.1 | – | – | 80 to 156
COC(=O)C#CC(=O)c1ccc(OC)c(OC)c1OC [D, methyl 3-(2,3,4-trimethoxybenzoyl)propiolate] | 2.1 | – | 625 to 1250 | –
COc1cc(C(=O)C#CCO)cc(OC)c1OC [B, 4-hydroxy-1-(3,4,5-trimethoxyphenyl)-2-butyn-1-one] | 1.9 | 18 | 156 to 312 | –
COCCOCCOC(=O)C#CC(=O)c1cc(OC)c(OC)c(OC)c1 [F, 2-(2-methoxyethoxy)ethyl 3-(3,4,5-trimethoxybenzoyl)propiolate] | 2.9 | – | > 5000 | –
